Results: US7175993B2 (Saladax Biomedical, Inc., priority 2004, dated 2007)

Key:
Format in all cases: binding, mice
[1] = test system: Monoclonal Ab #2 (monoclonal antibody to taxol); assay: Indirect competitive microtiter plate immunoassay (ELISA), Monoclonal Ab #2
Method: (§1) The assay was performed by incubating 50 μL of the analytes to be measured with 50 μL of antibody (produced in example 4) diluted to a titer determined in example 8a. […] Following this incubation the wells of the plate were washed three times with 0.02 M TRIS, 0.9% NaCl, 0.5% Tween-80 and 0.001% Thimerosal, pH 7.8 to remove any material that was not bound. […] To develop a measurable color in the wells, washing was followed by the addition of 100 μL of TMB (TMB Liquid Substrate, Sigma), a substrate for HRP, to develop color in a 10 minute incubation with shaking at room temperature. Following the incubation for color development, 50 μL of stop solution (1.5% sodium fluoride in di H2O) was added to each well to stop the color development and after 10 seconds of shaking the absorbance was determined at 650 nm (Molecular Devices Plate Reader). The amount of antibody in a well was proportional to the absorbance measured and inversely proportional to the amount of taxol in the sample. The absorbance of the color in the wells containing analyte is compared to that with no analyte and a standard curve is generated. […] The cross-reactivity with 6-α-hydroxypaclitaxel was less than 60%. […]
(§2) The assay was performed by incubating 50 μL of the analytes to be measured with 50 μL of antibody (produced in example 4) diluted to a titer determined in example 8a. […] Following this incubation the wells of the plate were washed three times with 0.02 M TRIS, 0.9% NaCl, 0.5% Tween-80 and 0.001% Thimerosal, pH 7.8 to remove any material that was not bound. […] This secondary antibody was capable of binding specifically with murine immunoglobulins producing a colored product when incubated with a substrate. […] To develop a measurable color in the wells, washing was followed by the addition of 100 μL of TMB (TMB Liquid Substrate, Sigma), a substrate for HRP, to develop color in a 10 minute incubation with shaking at room temperature. Following the incubation for color development, 50 μL of stop solution (1.5% sodium fluoride in di H2O) was added to each well to stop the color development and after 10 seconds of shaking the absorbance was determined at 650 nm (Molecular Devices Plate Reader). The amount of antibody in a well was proportional to the absorbance measured and inversely proportional to the amount of taxol in the sample. The absorbance of the color in the wells containing analyte is compared to that with no analyte and a standard curve is generated. […]

[2] = test system: taxol polyclonal antibodies; assay: Indirect competitive microtiter plate immunoassay (ELISA), polyclonal antibodies to taxol (pool of antisera); conditions: for Cross-reactivity relative to taxol: polyclonal antibody pool
Method: as §1, §2

[3] = test system: Monoclonal Ab #1 (monoclonal antibody to taxol); assay: Indirect competitive microtiter plate immunoassay (ELISA), Monoclonal Ab #1
Method: as §1, §2

[4] = plate sensitized with Taxol Derivative 5
[5] = plate sensitized with Taxol Derivative 8
[6] = microtiter plate sensitized with Taxol Derivative 5 (example 9a)
[7] = microtiter plate sensitized with Taxol Derivative 8 (example 9b)

Compound	Cross-reactivity relative to taxol [1, 4]	Cross-reactivity relative to taxol [1, 5] [%]	Cross-reactivity relative to taxol [2, 6]	Cross-reactivity relative to taxol [2, 7] [%]	Cross-reactivity relative to taxol [3, 4] [%]	Cross-reactivity relative to taxol [3, 5] [%]	IC50 ([2]; antisera of the four individual mice combined in the pool) [µg/mL]
CC(=O)O[C@H]1C(=O)[C@@]2(C)[C@H]([C@H](OC(=O)c3ccccc3)[C@]3(O)C[C@H](OC(=O)[C@H](O)[C@@H](NC(=O)c4ccccc4)c4ccc(O)cc4)C(C)=C1C3(C)C)[C@]1(OC(C)=O)CO[C@@H]1C[C@@H]2O [3′-p-Hydroxypaclitaxel, 3′-p-hydroxypaclitaxel]	≦2.3%	1.5	≦10%	0.57	5.9	8.1	–
CC(=O)O[C@H]1C(=O)[C@@]2(C)[C@H]([C@H](OC(=O)c3ccccc3)[C@]3(O)C[C@H](O)C(C)=C1C3(C)C)[C@]1(OC(C)=O)CO[C@@H]1C[C@@H]2O [Baccatin III]	≦0.19%	0.13	0.10%	0.10	0.13	0.17	–
CC(=O)O[C@H]1C(=O)[C@@]2(C)[C@H]([C@H](OC(=O)c3ccccc3)[C@]3(O)C[C@H](OC(=O)[C@H](O)[C@@H](NC(=O)c4ccccc4)c4ccccc4)C(C)=C1C3(C)C)[C@]1(OC(C)=O)CO[C@@H]1[C@@H](O)[C@@H]2O [6-α-Hydroxypaclitaxel, 6-α-hydroxypaclitaxel]	≦4.6%	2.9	<58%	1.60	5.1	6.5	–
CC(=O)O[C@H]1C(=O)[C@@]2(C)[C@H]([C@H](OC(=O)c3ccccc3)[C@]3(O)C[C@H](OC(=O)[C@H](O)[C@@H](NC(=O)c4ccccc4)c4ccccc4)C(C)=C1C3(C)C)[C@]1(OC(C)=O)CO[C@@H]1C[C@@H]2O [Taxol (Paclitaxel), Taxol]	–	–	–	–	–	–	< 0.02
CC(=O)O[C@@]12CO[C@@H]1C[C@H](O)[C@@]1(C)C(=O)[C@H](O)C3=C(C)[C@@H](OC(=O)[C@H](O)[C@@H](NC(=O)OC(C)(C)C)c4ccccc4)C[C@@](O)([C@@H](OC(=O)c4ccccc4)[C@H]21)C3(C)C [Docetaxel]	101%	85	≦5%	0.16	76	77	–
